Reference: paper PMC9435431, “Novel chemical entities inhibiting Mycobacterium tuberculosis growth identified by phenotypic high-throughput screening” (Scientific Reports, 2022)

Experiments:
[1] = test system: M. tuberculosis MmpL3 F255L mutant strain; assay type: cell-based, Mycobacterium tuberculosis
[2] = test system: M. tuberculosis MmpL3 Y252S mutant strain; assay type: cell-based, Mycobacterium tuberculosis
[3] = test system: M. tuberculosis MmpL3 Y252C mutant strain; assay type: cell-based, Mycobacterium tuberculosis
[4] = test system: M. tuberculosis MmpL3 G253E mutant strain; assay type: cell-based, Mycobacterium tuberculosis
M. tuberculosis = assay type: cell-based
[5] = test system: M. tuberculosis QcrB A396T mutant strain; assay type: cell-based, Mycobacterium tuberculosis

Which results are given for `CNc1cc(-c2ccccn2)nc(-c2ccccn2)n1` [APDP-1]?
Fold change [1]: 0.9; IC90 [1]: 9.2 µM

With `Cc1nc(-c2ccccn2)nc(NCCNc2ccc(C(F)(F)F)cn2)c1Cl` [APDP-2] as the compound, how does the Fold change [1] read?
The Fold change was 0.5.

And the IC90 [1]?
Its IC90 is 15 µM.

Which Fold change [1] does the source give for `Cc1nc(-c2ccccn2)nc(NCc2ccccc2)c1Cl` [APDP-3] here?
The Fold change was 3.5.

What about the IC90 [1] of the same compound?
The IC90 was 22 µM.

How did the Fold change [1] turn out when `O=C(Nc1nc2ccccc2s1)NC1C2CC3CC(C2)CC1C3` (stereo not shown) [HBU-1] was run?
Its Fold change is 1.4.

What about the IC90 [1] of the same compound?
Its IC90 is 6 µM.

For `CC1C(CNC(=O)Nc2ccccc2)CC2CC1C2(C)C` (stereo not shown) [HBU-2], which Fold change [1] is on record?
Its Fold change is 8.0.

And the IC90 [1]?
Its IC90 is 39 µM.

`CC(=O)c1ccc(NC(=O)NC(C)C23CC4CC(CC(C4)C2)C3)cc1` (stereo not shown) [HBU-3] was tested. Which Fold change [1] did it give?
The Fold change was 2.4.

And the IC90 [1]?
The IC90 was 71 µM.

What does the source list for `O=C(NCCc1ccc(Br)cc1)NC12CC3CC(CC(C3)C1)C2` [HBU-4]?
Fold change [1]: > 8.3; IC90 [1]: > 100 µM

How did the Fold change [1] turn out when `CC(NC(=O)Nc1nc(-c2ccc(Cl)cc2)cs1)C1CC2C=CC1C2` (stereo not shown) [HBU-5] was run?
The Fold change was 0.5.

What about the IC90 [1] of the same compound?
The IC90 was 6.9 µM.

For `CCC1(N2CCC(c3ccccc3)CC2)CCCCC1` [Molecule 4PP-1, 1-(1-Ethyl-cyclohexyl)-4-phenyl-piperidine], which Fold change [1] is on record?
The Fold change was 11.

And the IC90 [1]?
The IC90 was 68 µM.

And the “MmpL3 F255L MIC” value [1]?
Its value is 68 µM.

And the “MmpL3 Y252S MIC” value [2]?
Its value is 93 µM.

What about the “MmpL3 Y252C MIC” value [3] of the same compound?
Its value is 30 µM.

And the “MmpL3 G253E MIC” value [4]?
The value was 91 µM.

What does the source list for `O=C(O)C(F)(F)F.c1ccc2c(C3CCN(CC4CCCCC4)CC3)cccc2c1` [Molecule 4PP-31, 1-(Cyclohexylmethyl)-4-(1-naphthyl)piperidine; 2,2,2-trifluoroacetic acid]?
Fold change [1]: 15; IC90 [1]: 45 µM

With `O=C(O)C(F)(F)F.c1cc(C2CCN(CC3CCCCC3)CC2)ccn1` [Molecule 4PP-32, 4-[1-(Cyclohexylmethyl)-4-piperidyl]pyridine, 2,2,2-trifluoroacetic acid salt] as the compound, how does the frequency of resistance (M. tuberculosis) read?
Its frequency of resistance is 7.35 × 10^−8.

`CC(C)(C)CC(C)(C)N1CCC(c2ccccc2)CC1` [Molecule 4PP-44, 4-Phenyl-1-(1,1,3,3-tetramethyl-butyl)-piperidine] was tested. Which Fold change [1] did it give?
Its Fold change is 3.5.

What about the IC90 [1] of the same compound?
The IC90 was 18 µM.

Which results are given for `O=C(NCCc1cccc(Br)c1)C1(c2cccc(Cl)c2)CCC1` [PCB-16, N-(3-bromophenethyl)-1-(3-chlorophenyl)cyclobutane-1-carboxamide]?
MmpL3 F255L MIC [1]: 8.0 µM; MmpL3 Y252S MIC [2]: 50 µM; MmpL3 Y252C MIC [3]: 43 µM; MmpL3 G253E MIC [4]: 75 µM

With `O=C(NCCc1cccc(Br)c1)C1(c2ccccc2Cl)CCC1` [PCB-17, N-(3-bromophenethyl)-1-(2-chlorophenyl)cyclobutane-1-carboxamide] as the compound, how does the “MmpL3 F255L MIC” value [1] read?
Its value is 9.0 µM.

And the “MmpL3 Y252S MIC” value [2]?
The value was 87 µM.

What about the “MmpL3 Y252C MIC” value [3] of the same compound?
Its value is 94 µM.

And the “MmpL3 G253E MIC” value [4]?
The value was 28 µM.

`O=C(NCCc1cccc(Br)c1)C1(c2ccc(F)cc2)CCC1` [PCB-19, N-(3-bromophenethyl)-1-(4-fluorophenyl)cyclobutane-1-carboxamide] was tested. Which “MmpL3 F255L MIC” value [1] did it give?
Its value is 3 µM.

What about the frequency of resistance (M. tuberculosis) of the same compound?
Its frequency of resistance is 7.0 × 10^−8.

And the “MmpL3 Y252S MIC” value [2]?
The value was 35 µM.

What about the “MmpL3 Y252C MIC” value [3] of the same compound?
The value was 45 µM.

And the “MmpL3 G253E MIC” value [4]?
Its value is 20 µM.

Which results are given for `O=C(NCCc1cccc(Br)c1)C1(c2ccccc2Br)CCC1` [PCB-21, N-(3-bromophenethyl)-1-(2-bromophenyl)cyclobutane-1-carboxamide]?
MmpL3 F255L MIC [1]: 22 µM; frequency of resistance (M. tuberculosis): 5.26 × 10^−8; MmpL3 Y252S MIC [2]: > 100 µM; MmpL3 Y252C MIC [3]: 96 µM; MmpL3 G253E MIC [4]: 41 µM

Which “MmpL3 F255L MIC” value [1] does the source give for `Cc1ccccc1C1(C(=O)NCCc2cccc(Br)c2)CCC1` [PCB-23, N-(3-bromophenethyl)-1-(o-tolyl)cyclobutane-1-carboxamide] here?
Its value is 8.0 µM.

What about the “MmpL3 Y252S MIC” value [2] of the same compound?
The value was 82 µM.

What about the “MmpL3 Y252C MIC” value [3] of the same compound?
The value was 83 µM.

What about the “MmpL3 G253E MIC” value [4] of the same compound?
Its value is 27 µM.

Which results are given for `Cc1ccc(-c2nnc(C)c(N3CCCC3)n2)cc1` [PYT]?
Fold-change [5]: 5.8; IC90 [5]: 62 µM; activity against the QcrB mutant strain (in words) [5]: ≥ threefold lower activity

With `COc1ccc(-c2cc(N)nc(-n3nc(C)cc3C)n2)cc1` [PZP-1] as the compound, how does the Fold change [1] read?
The Fold change was greater than 19.

And the IC90 [1]?
The IC90 was greater than 100 µM.

What does the source list for `Cc1cc(C)n(-c2nc(N)cc(-c3cccc(F)c3)n2)n1` [PZP-2]?
Fold change [1]: > 13; IC90 [1]: > 100 µM

Which Fold change [1] does the source give for `Cc1cc(NC2CCCCC2)nc(-n2nc(C)cc2C)n1` [PZP-3] here?
The Fold change was 10.

What about the IC90 [1] of the same compound?
The IC90 was 46 µM.

For `CC(=O)n1nccc1-c1sc(-c2cccs2)nc1C` [TPT], which Fold-change [5] is on record?
Its Fold-change is 8.9.

What about the IC90 [5] of the same compound?
Its IC90 is 63 µM.

What about the “activity against the QcrB mutant strain (in words)” value [5] of the same compound?
The value was “≥ threefold lower activity”.
